Assay results published in patent publication US10005792B2, “Aminoindane-, aminotetrahydronaphthalene- and aminobenzocyclobutane-derived PRMT5-inhibitors” (CTXT PTY LTD, priority 2014, dated 2018).
Structures can show the parent of a compound that is named as a salt.

Biological target: T1, Full-length PRMT5 enzyme co-expressed with MEP50 (Homo sapiens (Human), UniProt O14744)
Experiment: PRMT5 Biochemical Assay
Details: 200 nM histone H4 derived peptide substrate, 1 μM S-Adenosyl methionine, 4 hours at 37° C, Transcreener EPIGEN fluorescence polarisation
Protocol: (§1) Compounds of the invention may be tested for in vitro activity in the following assay: A histone H4 derived peptide is used as substrate (amino acid sequence: […]NH2). Full-length PRMT5 enzyme (NCBI Reference sequence NP-006100.2) was co-expressed with Hiss-MEP50 in insect cells and purified via Nickel immobilized metal affinity and gel filtration chromatography (“the enzyme”).
(§2) The 6 μL assay reactions are run in Greiner brand black 384-well low volume plates. All reactions contained assay buffer (phosphate buffered saline, 0.01% (v/v) Tween-20, 0.01% (w/v) albumin from chicken egg white, 1 mM dithiothreitol, 200 nM peptide substrate, 1 μM S-Adenosyl methionine, and 15 ng/reaction enzyme, with the enzyme being omitted from negative control reactions. Compounds were added in a volume of 100 nL from dilution series prepared in DMSO, positive and negative control reactions receiving the same volume DMSO without compound. The plates were sealed with adhesive seals and incubated for 4 hours at 37° C. Reaction progress was measured using the Transcreener™ EPIGEN methyltransferase assay (BellBrook Labs, Madison, Wis.) as recommended by the manufacturer. To each reaction 2 μL detection mix were added, containing coupling enzymes, fluorescence polarisation tracer, and AMP antibody. Plates were incubated for 90 min before being read on a PerkinElmer EnVision™ plate reader in fluorescence polarisation mode.

T1 sequence (O14744 whole entry): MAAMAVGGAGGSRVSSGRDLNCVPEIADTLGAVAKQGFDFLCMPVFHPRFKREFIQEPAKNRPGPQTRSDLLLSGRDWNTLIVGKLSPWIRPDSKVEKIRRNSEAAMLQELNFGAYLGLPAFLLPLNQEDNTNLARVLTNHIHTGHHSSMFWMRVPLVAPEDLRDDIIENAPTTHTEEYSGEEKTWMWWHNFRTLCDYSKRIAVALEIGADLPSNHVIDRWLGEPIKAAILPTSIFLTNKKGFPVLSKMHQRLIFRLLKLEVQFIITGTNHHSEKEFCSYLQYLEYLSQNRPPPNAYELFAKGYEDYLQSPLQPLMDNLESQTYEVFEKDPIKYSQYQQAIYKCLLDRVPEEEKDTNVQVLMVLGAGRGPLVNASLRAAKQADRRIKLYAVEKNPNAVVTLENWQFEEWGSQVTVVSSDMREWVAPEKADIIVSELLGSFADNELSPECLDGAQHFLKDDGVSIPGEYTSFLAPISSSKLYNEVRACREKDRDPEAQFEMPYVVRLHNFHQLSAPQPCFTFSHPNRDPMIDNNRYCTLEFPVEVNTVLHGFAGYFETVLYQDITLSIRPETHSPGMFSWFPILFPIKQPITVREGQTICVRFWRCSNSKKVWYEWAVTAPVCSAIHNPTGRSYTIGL
T1 sequence (Q9BQA1 whole entry partner): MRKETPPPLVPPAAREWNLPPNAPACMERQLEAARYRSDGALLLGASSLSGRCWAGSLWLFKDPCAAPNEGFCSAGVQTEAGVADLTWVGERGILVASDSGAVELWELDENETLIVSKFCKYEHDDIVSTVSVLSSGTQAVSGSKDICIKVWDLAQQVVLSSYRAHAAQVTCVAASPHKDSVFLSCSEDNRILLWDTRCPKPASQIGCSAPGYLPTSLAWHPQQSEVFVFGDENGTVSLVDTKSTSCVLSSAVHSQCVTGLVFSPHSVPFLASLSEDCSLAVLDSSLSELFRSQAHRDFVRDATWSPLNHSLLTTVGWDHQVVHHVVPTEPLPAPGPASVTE

Structure (SMILES)	IC50 [nM]
O=C(NCC(O)CNC1Cc2ccccc2C1)c1ccc(Cl)cc1 (stereo not shown) [Compound 1, 4-Chloro-N-(3-((2,3-dihydro-1H-inden-2-yl)amino)-2-hydroxypropyl)benzamide]	792
Cc1nc(-c2ccc(C(F)(F)F)cc2)sc1C(=O)NC[C@H](O)CNC1Cc2ccccc2C1 [Compound 3, (R)—N-(3-((2,3-Dihydro-1H-inden-2-yl)amino)-2-hydroxypropyl)-4-methyl-2-(4-(trifluoromethyl)phenyl)thiazole-5-carboxamide]	309
O=C(NC[C@H](O)CNC1Cc2ccccc2C1)c1cnn(-c2ccccc2)c1 [Compound 4, (R)-N-(3-((2,3-Dihydro-1H-inden-2-yl)amino)-2-hydroxypropyl)-1-phenyl-1H-pyrazole-4-carboxamide]	3790
Cc1nn(C)cc1-c1cc(C(=O)NC[C@H](O)CNC2Cc3ccccc3C2)no1 [Compound 5, (R)-N-(3-((2,3-Dihydro-1H-inden-2-yl)amino)-2-hydroxypropyl)-5-(1,3-dimethyl-1H-pyrazol-4-yl)isoxazole-3-carboxamide]	9780
COc1ccc(-c2cc(C(=O)NC[C@H](O)CNC3Cc4ccccc4C3)no2)cc1 [Compound 6, (R)-N-(3-((2,3-Dihydro-1H-inden-2-yl)amino)-2-hydroxypropyl)-5-(4-methoxyphenyl)isoxazole-3-carboxamide]	1550
O=C(NC[C@H](O)CNC1Cc2ccccc2C1)c1cnn(-c2ccc(F)cc2)c1 [Compound 9, (R)-N-(3-((2,3-Dihydro-1H-inden-2-yl)amino)-2-hydroxypropyl)-1-(4-fluorophenyl)-1H-pyrazole-4-carboxamide]	3720
O=C(NC[C@H](O)CNC1Cc2ccccc2C1)c1cnn(-c2cccc(Cl)c2)c1 [Compound 10, (R)-1-(3-Chlorophenyl)-N-(3-((2,3-dihydro-1H-inden-2-yl)amino)-2-hydroxypropyl)-1H-pyrazole-4-carboxamide]	1440
O=C(NC[C@H](O)CNC1Cc2ccccc2C1)c1ccc(N2CCOCC2)nc1 [Compound 11, (R)-N-(3-((2,3-Dihydro-1H-inden-2-yl)amino)-2-hydroxypropyl)-6-morpholinonicotinamide]	830
Cc1nnc(-c2ccc(C(=O)NC[C@H](O)CNC3Cc4ccccc4C3)cc2)o1 [Compound 12, (R)-N-(3-((2,3-Dihydro-1H-inden-2-yl)amino)-2-hydroxypropyl)-4-(5-methyl-1,3,4-oxadiazol-2-yl)benzamide]	695

Biological target: T1, Full-length PRMT5 enzyme co-expressed with MEP50
Experiment: Revised PRMT5 Biochemical Assay
Details: 1 μM histone H4 derived peptide substrate, 1 μM S-Adenosyl methionine, 4 hours at 37 degree Celsius, Transcreener EPIGEN fluorescence polarisation
Protocol: as §1
as §2, with “6 μL reactions are” for “6 μL assay reactions are”, “low volume assay plates. All” for “low volume plates. All”, “1 mM Dithiothreitol, 1 μM peptide substrate,” for “1 mM dithiothreitol, 200 nM peptide substrate,”, “hours at 37 degree Celsius. Reaction progress” for “hours at 37° C. Reaction progress”, “for 90 minutes before being” for “for 90 min before being”, “polarisation mode. IC50 values were obtained from the raw readings by calculating percent inhibition (% I) for each reaction relative to controls on the same plate (% I=(I−CN)/(CP−CN) where CN/CP are the averages of the negative/positive reactions, respectively), then fitting the % I data vs. compound concentration [I] to % I=([…]) where A is the lower asymptote, B is the upper asymptote, C is the IC50 value, and D is the slope.” for “polarisation mode.”

Structure (SMILES)	IC50 [nM]
CCOc1cc(-c2nnc(C)o2)ccc1C(=O)NC[C@@H](O)CNC1Cc2ccccc2C1 [Compound 116, (S)-N-(3-((2,3-dihydro-1H-inden-2-yl)amino)-2-hydroxypropyl)-2-ethoxy-4-(5-methyl-1,3,4-oxadiazol-2-yl)benzamide]	276
O=C(NC[C@@H](O)CNC1Cc2ccccc2C1)c1ccccc1C(F)(F)F [Compound 118, (S)-N-(3-((2,3-dihydro-1H-inden-2-yl)amino)-2-hydroxypropyl)-2-(trifluoromethyl)benzamide]	103000
O=C(NC[C@@H](O)CNC1Cc2ccccc2C1)c1cccc(OC(F)F)c1 [Compound 119, (S)-3-(difluoromethoxy)-N-(3-((2,3-dihydro-1H-inden-2-yl)amino)-2-hydroxypropyl)benzamide]	5080
O=C(NC[C@@H](O)CNC1Cc2ccccc2C1)c1cccc2[nH]cnc12 [Compound 120, (S)-N-(3-((2,3-dihydro-1H-inden-2-yl)amino)-2-hydroxypropyl)-1H-benzo[d]imidazole-4-carboxamide]	13300
CCOc1cc(C(=O)N2CCOCC2)c(C)cc1C(=O)NC[C@@H](O)CNC1Cc2ccccc2C1 [Compound 122, (S)-N-(3-((2,3-dihydro-1H-inden-2-yl)amino)-2-hydroxypropyl)-2-ethoxy-5-methyl-4-(morpholine-4-carbonyl)benzamide]	166
O=C(NC[C@@H](O)CNC1Cc2ccccc2C1)c1cccc2scnc12 [Compound 125, (S)-N-(3-((2,3-dihydro-1H-inden-2-yl)amino)-2-hydroxypropyl)benzo[d]thiazole-4-carboxamide]	6720
CCOc1cc(C(=O)N2C3CCC2COC3)ncc1C(=O)NC[C@@H](O)CNC1Cc2ccccc2C1 [Compound 126, 6-(3-oxa-8-azabicyclo[3.2.1]octane-8-carbonyl)-N-((S)-3-((2,3-dihydro-1H-inden-2-yl(amino-2-hydroxypropyl)-4-ethoxynicotinamidedihydrochloride]	226
O=C(NC[C@@H](O)CNC1Cc2ccccc2C1)c1cccc2[nH]ncc12 [Compound 128, (S)-N-(3-((2,3-dihydro-1H-inden-2-yl)amino)-2-hydroxypropyl)-1H-indazole-4-carboxamide]	15400
CCOc1cc(CC(=O)N2C3CCC2COC3)ccc1C(=O)NC[C@@H](O)CNC1Cc2ccccc2C1 [Compound 129, 4-(2-(3-oxa-8-azabicyclo[3.2.1]octan-8-yl)-2-oxoethyl)-N-((S)-3-((2,3-dihydro-1H-inden-2-yl)amino)-2-hydroxypropyl)-2-ethoxybenzamide]	629
CCOc1c(C(=O)NC[C@@H](O)CNC2Cc3ccccc3C2)ccc(C(=O)N2CCOCC2)c1C [Compound 130, (S)-N-(3-((2,3-dihydro-1H-inden-2-yl)amino)-2-hydroxypropyl)-2-ethoxy-3-methyl-4-(morpholine-4-carbonyl)benzamide]	1130
O=C(NC[C@@H](O)CNC1Cc2ccccc2C1)c1ccccc1Cl [Compound 131, (S)-2-chloro-N-(3-((2,3-dihydro-1H-inden-2-yl)amino)-2-hydroxypropyl)benzamide]	4590
O=C(NC[C@@H](O)CNC1Cc2ccccc2C1)c1cccc2cn[nH]c12 [Compound 132, (S)-N-(3-((2,3-dihydro-1H-inden-2-yl)amino)-2-hydroxypropyl)-1H-indazole-7-carboxamide]	29700
COc1cc(C(=O)N2C3CCC2COC3)ccc1C(=O)NC[C@@H](O)CNC1Cc2ccccc2C1 [Compound 134, 4-(3-Oxa-8-azabicyclo[3.2.1]octane-8-carbonyl)-N-((S)-3-((2,3-dihydro-1H-inden-2-yl)amino)-2-hydroxypropyl)-2-methoxybenzamide hydrochloride]	238
O=C(NC[C@@H](O)CNC1Cc2ccccc2C1)c1ccc(C(=O)N2[C@@H]3CCC[C@H]2COC3)cc1 [Compound 136, 4-((1R,5S)-3-Oxa-9-azabicyclo[3.3.1]nonane-9-carbonyl)-N—((S)-3-((2,3-dihydro-1H-inden-2-yl)amino)-2-hydroxypropyl)benzamide]	50
O=C(NC[C@@H](O)CNC1Cc2ccccc2C1)c1ccccc1C(F)F [Compound 137, (S)-2-(difluoromethyl)-N-(3-((2,3-dihydro-1H-inden-2-yl)amino)-2-hydroxypropyl)benzamide]	47000
O=C(NC[C@@H](O)CNC1Cc2ccccc2C1)c1cccc(C(F)F)c1 [Compound 138, (S)-3-(difluoromethyl)-N-(3-((2,3-dihydro-1H-inden-2-yl)amino)-2-hydroxypropyl)benzamide]	16900
CC(=O)N1CC2CCC(C1)C2Nc1cccc(C(=O)NC[C@@H](O)CNC2Cc3ccccc3C2)c1 (stereo partly drawn) [Compound 139, 3-((3-Acetyl-3-azabicyclo[3.2.1]octan-8-yl)amino)-N—((S)-3-((2,3-dihydro-1H-inden-2-yl)amino)-2-hydroxypropyl)benzamide]	771
CS(=O)(=O)Nc1cccc(C(=O)NC[C@@H](O)CNC2Cc3ccccc3C2)c1 [Compound 140, (S)—N-(3-((2,3-Dihydro-1H-inden-2-yl)amino)-2-hydroxypropyl)-3-(methylsulfonamido) benzamide]	4680
CCOc1cc(C(=O)N2C3CCC2COC3)c(F)cc1C(=O)NC[C@@H](O)CNC1Cc2ccccc2C1 [Compound 141, 4-(3-oxa-8-azabicyclo[3.2.1]octane-8-carbonyl)-N—((S)-3-((2,3-dihydro-1H-inden-2-yl)amino)-2-hydroxypropyl)-2-ethoxy-5-fluorobenzamide]	695
